Measurements reported in patent US11963960B2 (Flash Therapeutics, LLC, priority 2020, dated 2024).

molecular target: N-terminally GST-tagged HCK (75-526) (Homo sapiens (Human), UniProt P08631); test: HCK Kinase Assay (ProFluor Src-Family Kinase Assay); assay type: biochemical; settings: not given
Description: The procedure of ProFluor Src-Family Kinase Assay (Promega, Cat. No. V1271) was then followed. To the reaction was added 5 μL Protease solution and the mixture was incubated for 60 minutes at room temperature (22-25° C.), followed by 5 μL Stabilizer solution. The fluorescence signal was read on an Envision multilabel plate reader (Perkin Elmer). The R110 was then read at an excitation wavelength of 485 nm and an emission wavelength of 530 nm. The AMC signal was read at an excitation wavelength of 355 nm and an emission wavelength of 460 nm.

Sequence of N-terminally GST-tagged HCK (75-526) (P08631 75-526): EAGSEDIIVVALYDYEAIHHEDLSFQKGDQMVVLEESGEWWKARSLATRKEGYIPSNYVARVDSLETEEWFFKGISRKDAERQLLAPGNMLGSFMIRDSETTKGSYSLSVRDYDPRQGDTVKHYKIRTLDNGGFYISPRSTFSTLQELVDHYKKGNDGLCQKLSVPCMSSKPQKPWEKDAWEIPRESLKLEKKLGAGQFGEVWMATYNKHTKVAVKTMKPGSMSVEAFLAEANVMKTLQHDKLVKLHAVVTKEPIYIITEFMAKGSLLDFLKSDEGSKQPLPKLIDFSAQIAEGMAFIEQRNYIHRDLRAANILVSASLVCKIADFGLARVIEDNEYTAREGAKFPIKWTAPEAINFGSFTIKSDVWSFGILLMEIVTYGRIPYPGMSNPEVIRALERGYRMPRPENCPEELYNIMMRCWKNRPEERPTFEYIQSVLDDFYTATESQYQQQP

IC50 [nM]	SMILES
50 to 250	CN1CCN([C@H]2CC[C@@H](n3cc(-c4ccc(Oc5ccccc5)cc4)c4c(N)ncnc43)CC2)CC1 [Example 2, 7-((cis)-4-(4-methylpiperazin-1-yl)cyclohexyl)-5-(4-phenoxyphenyl)-7H-pyrrolo[2,3-d]pyrimidin-4-amine]

same assay, conditions: HCK inhibitory activity, 50 μM ATP; read-out: HCK Activity

SMILES	IC50 [nM]
CNC(=O)CC1(NC)CCC(n2cc(-c3ccc(Oc4ccccc4)cc3)c3c(N)ncnc32)CC1 (stereo not shown) [Example 98, 2-(4-(4-amino-5-(4-phenoxyphenyl)-7H-pyrrolo[2,3-d]pyrimidin-7-yl)-1-(methylamino)cyclohexyl)-N-methylacetamide]	< 50
CN1CCN([C@H]2CC[C@H](c3cn(-c4ccc(Oc5ccccc5)cc4)c4c(N)ncnc43)CC2)CC1 [Example 177, 7-((trans)-4-(4-methylpiperazin-1-yl)cyclohexyl)-5-(4-phenoxyphenyl)-5H-pyrrolo[3,2-d]pyrimidin-4-amine]	< 50
CC(C)(O)CN1CCN([C@H]2CC[C@H](n3cc(-c4ccc(Oc5ccccc5)cc4)c4c(N)ncnc43)CC2)CC1 [Example 89, 1-(4-((trans)-4-(4-amino-5-(4-phenoxyphenyl)-7H-pyrrolo[2,3-d]pyrimidin-7-yl)cyclohexyl)piperazin-1-yl)-2-methylpropan-2-ol]	< 50
Nc1ncnc2c1c(-c1ccc(Oc3ccccc3)cc1)cn2[C@H]1CC[C@@H](N2C[C@@H](O)[C@@H](O)C2)CC1 [Example 76, (3R,4S)-1-((cis)-4-(4-amino-5-(4-phenoxyphenyl)-7H-pyrrolo[2,3-d]pyrimidin-7-yl)cyclohexyl)pyrrolidine-3,4-diol]	50 to 250
Nc1ncnc2c1c(-c1ccc(Oc3ccccc3)cc1)cn2[C@H]1CC[C@H](N2CCC[C@@H](N)C2)CC1 [Example 59, 7-((trans)-4-((R)-3-aminopiperidin-1-yl)cyclohexyl)-5-(4-phenoxyphenyl)-7H-pyrrolo[2,3-d]pyrimidin-4-amine]	< 50
CN1CCN([C@H]2CC[C@@H](c3nc(-c4ccc(Oc5ccccc5)cc4F)c4c(N)ncnn43)CC2)CC1 [Example 164, 5-(2-Fluoro-4-phenoxyphenyl)-7-((cis)-4-(4-methylpiperazin-1-yl)cyclohexyl)imidazo[5,1-f][1,2,4]triazin-4-amine]	50 to 250
C[C@@H]1CN([C@H]2CC[C@H](n3nc(-c4ccc(Oc5ccccc5)cc4)c4c(N)ncnc43)CC2)CCN1 [Example 14, 1-((trans)-4-((R)-3-methylpiperazin-1-yl)cyclohexyl)-3-(4-phenoxyphenyl)-1H-pyrazolo[3,4-d]pyrimidin-4-amine]	< 50
CN1CCN([C@H]2CC[C@@H](c3cc(-c4ccc(NC(=O)Nc5cc(C(C)(C)C)on5)cc4)c4c(N)ncnn43)CC2)CC1 [Example 172]	< 50
C[C@H]1CN([C@H]2CC[C@H](n3cc(-c4ccc(NC(=O)Nc5cc(C(C)(C)C)on5)cc4)c4c(N)ncnc43)CC2)CCN1 [Example 129, 1-(4-(4-amino-7-((trans)-4-((S)-3-methylpiperazin-1-yl)cyclohexyl)-7H-pyrrolo[2,3-d]pyrimidin-5-yl)phenyl)-3-(5-(tert-butyl)isoxazol-3-yl)urea]	< 50
Nc1ncnc2c1c(-c1ccc(Oc3ccccc3)cc1)cn2[C@H]1CC[C@@H](N2CCN3CCCC3C2)CC1 (stereo partly drawn) [Example 45, 7-((cis)-4-(hexahydropyrrolo[1,2-a]pyrazin-2(1H)-yl)cyclohexyl)-5-(4-phenoxyphenyl)-7H-pyrrolo[2,3-d]pyrimidin-4-amine]	250 to 10000
CC[C@H]1CN([C@H]2CC[C@H](n3nc(-c4ccc(Oc5ccccc5)cc4F)c4c(N)ncnc43)CC2)CCN1 [Example 31, 1-((trans)-4-((S)-3-ethylpiperazin-1-yl)cyclohexyl)-3-(2-fluoro-4-phenoxyphenyl)-1H-pyrazolo[3,4-d]pyrimidin-4-amine]	< 50
Nc1ncnc2c1c(-c1ccc(Oc3ccccc3)cc1)cn2[C@H]1CC[C@@H](N2CCN3C(=O)CCC3C2)CC1 (stereo partly drawn) [Example 43, 2-((cis)-4-(4-amino-5-(4-phenoxyphenyl)-7H-pyrrolo[2,3-d]pyrimidin-7-yl)cyclohexyl)hexahydropyrrolo[1,2-a]pyrazin-6(2H)-one]	< 50
C[N+]1(C)CCN([C@H]2CC[C@@H](n3nc(-c4ccc(Oc5ccccc5)cc4F)c4c(N)ncnc43)CC2)CC1 [Example 8, 4-((cis)-4-(4-amino-3-(2-fluoro-4-phenoxyphenyl)-1H-pyrazolo[3,4-d]pyrimidin-1-yl)cyclohexyl)-1,1-dimethylpiperazin-1-ium]	50 to 250
Nc1ncnc2c1c(-c1ccc(Oc3ccccc3)cc1)cn2[C@H]1CC[C@@H](N2CCC(N)CC2)CC1 [Example 53, 7-((cis)-4-(4-aminopiperidin-1-yl)cyclohexyl)-5-(4-phenoxyphenyl)-7H-pyrrolo[2,3-d]pyrimidin-4-amine]	50 to 250
Nc1ncnc2c1c(-c1ccc(Oc3ccccc3)cc1)cn2[C@H]1CC[C@H](NCc2n[nH]c(=O)[nH]2)CC1 [Example 85, 3-((((trans)-4-(4-amino-5-(4-phenoxyphenyl)-7H-pyrrolo[2,3-d]pyrimidin-7-yl)cyclohexyl)amino)methyl)-1H-1,2,4-triazol-5(4H)-one]	< 50
CN1CCN([C@H]2CC[C@H](c3cc(-c4ccc(NC(=O)Nc5cc(C(C)(C)C)on5)cc4)c4c(N)ncnn43)CC2)CC1 [Example 171]	< 50
CCN1CCC(N2CCC(n3nc(-c4ccc(Oc5ccccc5)cc4F)c4c(N)ncnc43)CC2)CC1 [Example 152, 1-(1′-ethyl-[1,4′-bipiperidin]-4-yl)-3-(2-fluoro-4-phenoxyphenyl)-1H-pyrazolo[3,4-d]pyrimidin-4-amine]	< 50
Nc1ncnc2c1c(-c1ccc(Oc3ccccc3)cc1)cn2[C@H]1CC[C@H](N2CCS(=O)(=O)CC2)CC1 [Example 65, 4-((trans)-4-(4-amino-5-(4-phenoxyphenyl)-7H-pyrrolo[2,3-d]pyrimidin-7-yl)cyclohexyl)thiomorpholine 1,1-dioxide]	50 to 250
CN1CCN([C@H]2CC[C@@H](c3nc(-c4ccc(Oc5ccccc5)cc4)c4c(N)nccn43)CC2)CC1 [Example 174, 3-((cis)-4-(4-Methylpiperazin-1-yl)cyclohexyl)-1-(4-phenoxyphenyl)imidazo[1,5-a]pyrazin-8-amine]	250 to 10000
Nc1ncnc2c1c(-c1ccc(Oc3ccccc3)cc1)cn2[C@H]1CC[C@@H](N2CCN3CCC[C@@H]3C2)CC1 [Example 49, 7-((cis)-4-((R)-hexahydropyrrolo[1,2-a]pyrazin-2(1H)-yl)cyclohexyl)-5-(4-phenoxyphenyl)-7H-pyrrolo[2,3-d]pyrimidin-4-amine]	< 50

Now from value to compound:

IC50 [nM]	SMILES
50 to 250	Nc1ncnc2c1c(-c1ccc(Oc3ccccc3)cc1)cn2[C@H]1CC[C@@H](N2CCNCC2=O)CC1 [Example 91, 1-((cis)-4-(4-Amino-5-(4-phenoxyphenyl)-7H-pyrrolo[2,3-d]pyrimidin-7-yl)cyclohexyl)piperazin-2-one]
50 to 250	Nc1ncnc2c1c(-c1ccc(Oc3ccccc3)cc1)cn2[C@H]1CC[C@H](N2C[C@@H](O)[C@@H](O)C2)CC1 [Example 75, (3R,4S)-1-((trans)-4-(4-amino-5-(4-phenoxyphenyl)-7H-pyrrolo[2,3-d]pyrimidin-7-yl)cyclohexyl)pyrrolidine-3,4-diol]
< 50	CN1CCN([C@H]2CC[C@H](n3cc(-c4ccc(NC(=O)Nc5cc(C(C)(C)C)on5)cc4)c4c(N)ncnc43)CC2)CC1 [Example 120, 1-(4-(4-amino-7-((trans)-4-(4-methylpiperazin-1-yl)cyclohexyl)-7H-pyrrolo[2,3-d]pyrimidin-5-yl)phenyl)-3-(5-(tert-butyl)isoxazol-3-yl)urea]
< 50	C[C@H]1CC(N2CCC(n3nc(-c4ccc(Oc5ccccc5)cc4F)c4c(N)ncnc43)CC2)CCN1 (stereo partly drawn) [Example 155, 3-(2-fluoro-4-phenoxyphenyl)-1-((2′S)-2′-methyl-[1,4′-bipiperidin]-4-yl)-1H-pyrazolo[3,4-d]pyrimidin-4-amine]
< 50	Nc1ncnc2c1c(-c1ccc(Oc3ccccc3)cc1)cn2[C@H]1CC[C@@H](N2CCN(N)CC2)CC1 [Example 39, 7-((cis)-4-(4-aminopiperazin-1-yl)cyclohexyl)-5-(4-phenoxyphenyl)-7H-pyrrolo[2,3-d]pyrimidin-4-amine]
< 50	Nc1ncnc2c1c(-c1ccc(Oc3ccccc3)cc1)cn2C1CCN(C(CO)CO)CC1 [Example 161, 2-(4-(4-amino-5-(4-phenoxyphenyl)-7H-pyrrolo[2,3-d]pyrimidin-7-yl)piperidin-1-yl)propane-1,3-diol]
< 50	CCOC(=O)C1CC12CCC(n1cc(-c3ccc(Oc4ccccc4)cc3)c3c(N)ncnc31)CC2 (stereo not shown) [Example 99, Ethyl 6-(4-amino-5-(4-phenoxyphenyl)-7H-pyrrolo[2,3-d]pyrimidin-7-yl)spiro[2.5]octane-1-carboxylate]
< 50	CN1CCC([C@H]2OC[C@@H](n3cc(-c4ccc(Oc5ccccc5)cc4)c4c(N)ncnc43)CO2)CC1 [Example 146, 7-((2s,5s)-2-(1-Methylpiperidin-4-yl)-1,3-dioxan-5-yl)-5-(4-phenoxyphenyl)-7H-pyrrolo[2,3-d]pyrimidin-4-amine]
< 50	Nc1ncnc2c1c(-c1ccc(Oc3ccccc3)cc1)cn2[C@H]1CC[C@@H](N2CCCC(N)C2)CC1 (stereo partly drawn) [Example 55, 7-((cis)-4-(3-aminopiperidin-1-yl)cyclohexyl)-5-(4-phenoxyphenyl)-7H-pyrrolo[2,3-d]pyrimidin-4-amine]
250 to 10000	COC(=O)CC1(N)CCC(n2cc(-c3ccc(Oc4ccccc4)cc3)c3c(N)ncnc32)CC1 (stereo not shown) [Example 95, Methyl 2-(1-amino-4-(4-amino-5-(4-phenoxyphenyl)-7H-pyrrolo[2,3-d]pyrimidin-7-yl)cyclohexyl) acetate]
